Counter-ions that a name gives are not always drawn. Like-named read-outs stand apart in the source and are kept apart here.
Legend:
Y641N EZH2 = Y641N EZH2 (Homo sapiens, UniProt Q15910, Y641N); assay: Y641N EZH2 assay: as EZH2 assay, with reconstituted H3K27Me2 oligonucleosomes as substrate; assay type: biochemical
[1] = test system: H3K27me3 mark in HeLa cells; assay: H3K27me3 MSD Hela Assay; assay type: cell-based; settings: read-out: H3K27me3_MSD_HeLa_ (EC50)
Summary of the method: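 HeLa cells treated with compound at various concentrations for 96 h at 37 °C, then lysed with high-salt extraction. H3K27me3 measured by MSD electrochemiluminescence immunoassay on total-H3 capture plates. Dose-dependent inhibition normalised to DMSO wells and fitted to curves.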

[2] = test system: H3K27me3 mark in HeLa cells; assay: H3K27me3 Alpha Hela Assay (AlphaLISA); assay type: cell-based; settings: 72 hrs, read-out: H3K27me3_Alpha_HeLa_ (EC50)
Summary of the method: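 HeLa cells (1,000/well) were treated with ten 3-fold compound doses for 72 h at 37 °C. After histone extraction, H3K27me3 was detected by AlphaLISA (anti-K27me3 acceptor beads, biotinylated anti-H3, streptavidin donor), with viability measured on a duplicate plate. Data were normalized to DMSO and curve-fitted.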

EZH2 (rPRC2) = EZH2 (rPRC2) (Homo sapiens, UniProt Q15910); assay: EZH2 assay: rPRC2, biotinylated oligonucleosomes, 3H SAM methyl transfer (FlashPlate scintillation); assay type: biochemical; settings: biotinylated oligonucleosome substrate
Sequence of EZH2 (rPRC2) (Q15910 whole entry): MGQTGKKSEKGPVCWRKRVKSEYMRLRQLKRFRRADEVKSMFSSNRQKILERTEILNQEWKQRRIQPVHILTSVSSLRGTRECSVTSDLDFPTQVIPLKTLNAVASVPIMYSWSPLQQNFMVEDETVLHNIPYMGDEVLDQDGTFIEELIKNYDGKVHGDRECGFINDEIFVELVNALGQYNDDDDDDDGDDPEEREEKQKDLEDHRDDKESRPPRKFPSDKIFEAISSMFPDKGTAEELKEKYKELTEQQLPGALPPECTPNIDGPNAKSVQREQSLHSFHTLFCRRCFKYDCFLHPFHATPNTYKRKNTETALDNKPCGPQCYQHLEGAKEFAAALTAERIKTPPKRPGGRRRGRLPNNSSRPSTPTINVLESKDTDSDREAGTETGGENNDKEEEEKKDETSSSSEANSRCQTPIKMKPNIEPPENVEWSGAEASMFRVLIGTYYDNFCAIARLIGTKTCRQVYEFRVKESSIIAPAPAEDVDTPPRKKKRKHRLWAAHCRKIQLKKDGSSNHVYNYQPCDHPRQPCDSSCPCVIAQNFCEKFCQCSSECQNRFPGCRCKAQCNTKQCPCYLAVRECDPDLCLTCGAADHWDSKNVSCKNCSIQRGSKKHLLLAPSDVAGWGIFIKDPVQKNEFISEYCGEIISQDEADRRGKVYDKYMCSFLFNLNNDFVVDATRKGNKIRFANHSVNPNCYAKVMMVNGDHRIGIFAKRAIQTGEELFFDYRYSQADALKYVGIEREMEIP
Sequence of EZH2 (rPRC2) (O75530 whole entry partner): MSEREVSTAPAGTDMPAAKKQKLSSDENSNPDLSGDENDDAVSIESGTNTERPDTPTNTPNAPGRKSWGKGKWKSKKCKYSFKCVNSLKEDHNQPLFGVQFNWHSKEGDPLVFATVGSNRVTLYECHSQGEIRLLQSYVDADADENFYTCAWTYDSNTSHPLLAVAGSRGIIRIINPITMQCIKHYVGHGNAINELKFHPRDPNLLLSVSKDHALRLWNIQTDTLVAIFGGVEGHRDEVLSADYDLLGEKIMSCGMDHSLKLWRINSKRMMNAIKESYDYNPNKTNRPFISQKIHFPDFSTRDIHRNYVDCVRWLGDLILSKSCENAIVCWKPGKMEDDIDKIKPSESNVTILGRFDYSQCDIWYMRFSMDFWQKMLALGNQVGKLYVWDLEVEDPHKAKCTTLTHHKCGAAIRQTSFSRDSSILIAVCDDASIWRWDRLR
Sequence of EZH2 (rPRC2) (Q15022 whole entry partner): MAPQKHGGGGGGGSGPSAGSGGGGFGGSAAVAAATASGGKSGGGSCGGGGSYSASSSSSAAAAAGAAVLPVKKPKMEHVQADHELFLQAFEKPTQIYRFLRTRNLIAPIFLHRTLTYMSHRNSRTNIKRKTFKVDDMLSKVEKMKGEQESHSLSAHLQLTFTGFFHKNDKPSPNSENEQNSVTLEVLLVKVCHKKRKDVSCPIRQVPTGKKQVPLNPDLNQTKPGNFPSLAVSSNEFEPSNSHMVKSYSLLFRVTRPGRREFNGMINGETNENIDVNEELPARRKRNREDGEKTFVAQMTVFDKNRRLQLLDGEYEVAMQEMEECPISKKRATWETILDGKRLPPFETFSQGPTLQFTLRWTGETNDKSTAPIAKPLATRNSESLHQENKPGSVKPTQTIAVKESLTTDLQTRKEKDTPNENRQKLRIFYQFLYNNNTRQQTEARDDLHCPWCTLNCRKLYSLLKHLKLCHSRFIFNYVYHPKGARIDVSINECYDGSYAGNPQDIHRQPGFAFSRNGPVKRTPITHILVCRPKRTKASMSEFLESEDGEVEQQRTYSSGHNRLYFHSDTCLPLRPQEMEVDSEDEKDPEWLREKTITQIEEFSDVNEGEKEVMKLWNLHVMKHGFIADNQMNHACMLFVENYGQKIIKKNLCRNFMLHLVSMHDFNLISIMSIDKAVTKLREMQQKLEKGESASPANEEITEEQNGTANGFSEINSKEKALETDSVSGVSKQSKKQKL

[3] = Y641N EZH2 IC50, Y641N mutant EZH2, H3K27Me2 oligonucleosome substrate
[4] = EZH2 IC50, wild-type EZH2 (rPRC2)

Sequence of Y641N EZH2 (Q15910 whole entry Y641N): as the sequence (Q15910 whole entry) above, with Y641N counted along it
Sequence of Y641N EZH2 (O75530 whole entry partner): as the sequence (O75530 whole entry partner) above
Sequence of Y641N EZH2 (Q15022 whole entry partner): as the sequence (Q15022 whole entry partner) above

Molecule	IC50 (Y641N EZH2; [3]) [nM]	EC50 ([1]; Homo sapiens, HeLa, 96 h) [nM]	EC50 ([2]; Homo sapiens) [nM]	IC50 (EZH2 (rPRC2); [4]) [nM]	IC50 (EZH2 (rPRC2); read-out: EZH2 IC50, wild-type EZH2 (rPRC2)) [nM]	IC50 (Y641N EZH2; Y641N mutant EZH2, H3K27Me2 oligonucleosome substrate, read-out: Y641N EZH2 IC50) [nM]	EC50 ([1]; HeLa cells, MSD, 96 hours) [nM]	EC50 [2] [nM]	IC50 (EZH2 (rPRC2); wild-type EZH2 (rPRC2), read-out: EZH2 IC50) [nM]
COc1cc(C)[nH]c(=O)c1CNC(=O)c1c(C)n(C(C)c2ccccc2)c2ccccc12 (single isomer, unassigned) [Compound 114, (R or S)N-((4-methoxy-6-methyl-2-oxo-1,2-dihydropyridin-3-yl)methyl)-2-methyl-1-(1-phenylethyl)-1H-indole-3-carboxamide]	< 100	< 400	400 to 2000	< 100	–	–	–	–	–
COc1cc(C)[nH]c(=O)c1CNC(=O)c1c(C)n(C(C)C2CCNCC2)c2ccccc12 (single isomer, unassigned) [Compound 326, (R or S)—N-((4-methoxy-6-methyl-2-oxo-1,2-dihydropyridin-3-yl)methyl)-2-methyl-1-(1-(piperidin-4-yl)ethyl)-1H-indole-3-carboxamide hydrochloride]	< 100	400 to 2000	400 to 2000	< 100	–	–	–	–	–
COCC(C)n1c(C)c(C(=O)NCc2c(OC)cc(C)[nH]c2=O)c2ccccc21 (single isomer, unassigned) [Compound 224, N-((4-methoxy-6-methyl-2-oxo-1,2-dihydropyridin-3-yl)methyl)-1-(1-methoxypropan-2-yl)-2-methyl-1H-indole-3-carboxamide]	< 100	< 400	< 400	–	< 100	–	–	–	–
COc1cc(C)[nH]c(=O)c1CNC(=O)c1c(C)n(C(C)C(C)OC)c2ccccc12 (racemic) [Compound 294, (±)-N-((4-methoxy-6-methyl-2-oxo-1,2-dihydropyridin-3-yl)methyl)-1-(3-methoxybutan-2-yl)-2-methyl-1H-indole-3-carboxamide]	< 100	< 400	< 400	< 100	–	–	–	–	–
(±)-1-(1-(4,4-difluorocyclohexyl)ethyl)-N-((4-methoxy-6-methyl-2-oxo-1,2-dihydropyridin-3-yl)methyl)-2-methyl-1H-indole-3-carboxamide [Compound 304]	–	–	–	–	–	< 100	< 400	< 400	< 100
COc1cc(C)[nH]c(=O)c1CNC(=O)c1c(C)n(C(C)C2CCOCC2)c2ncccc12 (single isomer, unassigned) [Compound 288, (R or S)-N-((4-Methoxy-6-methyl-2-oxo-1,2-dihydropyridin-3-yl)methyl)-2-methyl-1-(1-(tetrahydro-2H-pyran-4-yl)ethyl)-1H-pyrrolo[2,3-b]pyridine-3-carboxamide]	< 100	400 to 2000	< 400	< 100	–	–	–	–	–
COc1cc(C)[nH]c(=O)c1CNC(=O)c1c(C)n(C(C)C2CCOCC2)c2cc(F)ccc12 (single isomer, unassigned) [Compound 300, (R or S)-6-fluoro-N-((4-methoxy-6-methyl-2-oxo-1,2-dihydropyridin-3-yl)methyl)-2-methyl-1-(1-(tetrahydro-2H-pyran-4-yl)ethyl)-1 H-indole-3-carboxamide]	< 100	< 400	< 400	< 100	–	–	–	–	–

Source: patent US9371331B2, “Modulators of methyl modifying enzymes, compositions and uses thereof” (Constellation Pharmaceuticals, Inc., priority 2012, dated 2016)
